Test results as given in patent US8399465B2, “Compounds with two fused bicyclic heteroaryl moieties as modulators of leukotriene A4 hydrolase” (Janssen Pharmaceutica NV, priority 2009, dated 2013).

Legend:
[1] = system: LTB4 production in murine blood (LTA4H); assay: LTB4 production by calcium ionophore-stimulated murine blood for LTA4H inhibitor activity; assay type: cell-based, CD-1 mice; conditions: Mus musculus; murine blood diluted 1 in 15, A23187 stimulated; single determination or average; mark after value = form tested: ′ free base, ″ hydrochloride, ^ formate; read-out: IC50
In short: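 LTB4 was measured by ELISA in supernatants after calcium ionophore A23187 stimulation (final 7 μg/mL, 30 min, 37° C) of CD-1 mouse blood collected on heparin. Compound was preincubated with the blood for 15 min beforehand. Values come from one determination or average several.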

[2] = molecular target: T1, recombinant human LTA4 hydrolase (rhLTA4H) (Homo sapiens, UniProt P09960); assay: Recombinant human LTA4 hydrolase assay for LTA4 hydrolase inhibitor activity; assay type: biochemical; conditions: rhLTA4H, LTB4 by immunoassay; single determination or average of two or more; mark after value = form tested: ′ free base, ″ hydrochloride, ^ formate; read-out: IC50
T1 construct: made in house; host or cells: Spodoptera frugiperda (Sf-9) cells, baculovirus (pFastBac1)
T1 sequence (P09960 1-611): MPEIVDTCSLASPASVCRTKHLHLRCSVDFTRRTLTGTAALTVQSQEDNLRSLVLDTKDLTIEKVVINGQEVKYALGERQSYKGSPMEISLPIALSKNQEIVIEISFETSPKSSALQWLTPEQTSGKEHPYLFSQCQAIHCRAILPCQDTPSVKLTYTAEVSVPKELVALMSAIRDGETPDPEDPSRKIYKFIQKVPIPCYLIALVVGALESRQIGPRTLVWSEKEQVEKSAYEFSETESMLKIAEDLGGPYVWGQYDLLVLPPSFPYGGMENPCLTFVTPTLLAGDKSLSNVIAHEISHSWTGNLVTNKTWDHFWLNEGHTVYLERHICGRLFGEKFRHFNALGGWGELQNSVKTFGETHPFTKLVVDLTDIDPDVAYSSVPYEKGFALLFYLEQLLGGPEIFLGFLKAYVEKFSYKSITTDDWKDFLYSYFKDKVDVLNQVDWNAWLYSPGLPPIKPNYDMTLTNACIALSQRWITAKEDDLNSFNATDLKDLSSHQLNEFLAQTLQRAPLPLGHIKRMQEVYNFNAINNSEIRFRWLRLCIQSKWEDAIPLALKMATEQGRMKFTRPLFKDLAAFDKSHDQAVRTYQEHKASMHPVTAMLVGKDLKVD
In short: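 LTB4 formation, measured by enzyme immunoassay, was the read-out. The enzyme, recombinant human LTA4H expressed in Sf-9 insect cells (10 ng per reaction), was exposed to compound for 10 min at room temperature before hydrolysed-ester LTA4 substrate was added for 30 min. Enzyme-free negatives were included.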

`CCOC(=O)C1CCN(Cc2c[nH]c3cc(Oc4nc5ccccc5s4)ccc23)CC1` [Example 139, 1-[6-(Benzothiazol-2-yloxy)-1H-indol-3-ylmethyl]-piperidine-4-carboxylic acid ethyl ester] was tested, and the IC50 [1] was 467 nM and the IC50 [2] was 12 nM.
Work on `CCOC(=O)C1CCN(Cc2c[nH]c3cc(Oc4nc5cccnc5s4)ccc23)CC1` [Example 140, 1-[6-(Thiazolo[5,4-b]pyridin-2-yloxy)-1H-indol-3-ylmethyl]-piperidine-4-carboxylic acid ethyl ester] yielded an IC50 [1] of 8510 nM and an IC50 [2] of 21 nM.
In the case of `COC(=O)CC1CCN(Cc2c[nH]c3cc(Oc4nc5ccccc5s4)ccc23)CC1` [Example 141, {1-[6-(Benzothiazol-2-yloxy)-1H-indol-3-ylmethyl]-piperidin-4-yl}-acetic acid methyl ester], the IC50 [1] is reported as 640 nM and the IC50 [2] is reported as 20 nM.
For `CCOC(=O)[C@@H]1CCCN(Cc2c[nH]c3cc(Oc4nc5ccccc5s4)ccc23)C1` [Example 144, (3R)-1-[6-(Benzothiazol-2-yloxy)-1H-indol-3-ylmethyl]-piperidine-3-carboxylic acid ethyl ester], the IC50 [1] was 2440 nM and the IC50 [2] was 78 nM.
Work on `CC(C)(C)OC(=O)NC1CCN(Cc2c[nH]c3cc(Oc4nc5ccccc5s4)ccc23)CC1` [Example 145, {1-[6-(Benzothiazol-2-yloxy)-1H-indol-3-ylmethyl]-piperidin-4-yl}-carbamic acid tert-butyl ester] yielded an IC50 [1] of 171 nM and an IC50 [2] of 9.7 nM.
Compound `CC(C)(C)OC(=O)N1CC2CN(Cc3c[nH]c4cc(Oc5nc6ccccc6s5)ccc34)CC2C1` (centres unmarked) [Example 146, 5-[6-(Benzothiazol-2-yloxy)-1H-indol-3-ylmethyl]-hexahydro-pyrrolo[3,4-c]pyrrole-2-carboxylic acid tert-butyl ester] has an IC50 [1] of 582 nM and an IC50 [2] of 17 nM.
Compound `CC(C)(C)OC(=O)N1C[C@@H]2C[C@H]1CN2Cc1c[nH]c2cc(Oc3nc4ccccc4s3)ccc12` [Example 147, (1S,4S)-5-[6-(Benzothiazol-2-yloxy)-1H-indol-3-ylmethyl]-2,5-diaza-bicyclo[2.2.1]heptane-2-carboxylic acid tert-butyl ester] has an IC50 [1] of 568 nM and an IC50 [2] of 12 nM.
`NC(=O)N1CC2CN(Cc3coc4cc(Oc5nc6ncccc6s5)ccc34)CC2C1` (centres unmarked) [Example 161, 5-[6-(Thiazolo[4,5-b]pyridin-2-yloxy)-benzofuran-3-ylmethyl]-hexahydro-pyrrolo[3,4-c]pyrrole-2-carboxylic acid amide] was tested, and the IC50 [1] was 69 nM and the IC50 [2] was 9 nM.
For `CC(=O)N1C[C@@H]2C[C@H]1CN2Cc1coc2cc(Oc3nc4ccccc4s3)ccc12` [Example 164, (1S,4S)-1-{5-[6-(Benzothiazol-2-yloxy)-benzofuran-3-ylmethyl]-2,5-diaza-bicyclo[2.2.1]hept-2-yl}-ethanone], the IC50 [1] was 230 nM and the IC50 [2] was 26 nM.
For `c1ccc2sc(Oc3ccc4c(CN5CCOCC5)coc4c3)nc2c1` [Example 165, 2-(3-Morpholin-4-ylmethyl-benzofuran-6-yloxy)-benzothiazole], the IC50 [1] was 840 nM and the IC50 [2] was 95 nM.
In the case of `CC(=O)N1CCN(Cc2cc3ccc(Oc4nc5ncccc5s4)cc3o2)CC1` [Example 171, 1-{4-[6-(Thiazolo[4,5-b]pyridin-2-yloxy)-benzofuran-2-ylmethyl]-piperazin-1-yl}-ethanone], the IC50 [1] is reported as 280 nM and the IC50 [2] is reported as 59 nM.
Compound `NC(=O)N[C@H]1C[C@H]2CC[C@@H](C1)N2Cc1cc2ccc(Oc3nc4ncccc4s3)cc2o1` [Example 172, meso-endo-{8-[6-(Thiazolo[4,5-b]pyridin-2-yloxy)-benzofuran-2-ylmethyl]-8-aza-bicyclo[3.2.1]oct-3-yl}-urea] has an IC50 [1] of 230 nM and an IC50 [2] of 9 nM.
With `NC(=O)N[C@H]1C[C@H]2CC[C@@H](C1)N2Cc1coc2cc(Oc3nc4ncccc4s3)ccc12` [Example 175, meso-endo-{8-[6-(Thiazolo[4,5-b]pyridin-2-yloxy)-benzofuran-3-ylmethyl]-8-aza-bicyclo[3.2.1]oct-3-yl}-urea] the IC50 [1] was 176 nM and the IC50 [2] was 2 nM.
